From ChEMBL document CHEMBL3351493, “Beta-aminoketones as prodrugs for selective irreversible inhibitors of type-1 methionine aminopeptidases” (Bioorg Med Chem Lett, 2014) come the findings set out here.

For data set [1], the target named is T1, Methionine aminopeptidase (Escherichia coli K-12, UniProt P0AE18).
T1 sequence (P0AE18 whole entry): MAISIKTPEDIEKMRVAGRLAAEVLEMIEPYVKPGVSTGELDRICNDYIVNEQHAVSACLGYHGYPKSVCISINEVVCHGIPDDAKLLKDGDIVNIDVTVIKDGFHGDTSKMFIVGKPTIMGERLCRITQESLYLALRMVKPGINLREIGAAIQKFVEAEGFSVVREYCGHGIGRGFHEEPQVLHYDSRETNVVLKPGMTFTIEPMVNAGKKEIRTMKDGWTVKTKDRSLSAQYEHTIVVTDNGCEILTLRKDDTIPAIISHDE
Kind of data set: Inhibition of C-terminal poly-His-tagged Escherichia coli MetAP expressed in Escherichia coli BL21(DE3) incubated for 30 mins before MGMM substrate addition by fluorescence assay.

For data set [2], the target named is Methionine aminopeptidase (Staphylococcus aureus (strain COL), UniProt Q5HEN6). Kind of data set: Inhibition of N-terminal poly-His-tagged Staphylococcus aureus COL MetAP expressed in Escherichia coli BL21(DE3) incubated for 30 mins before MGMM substrate addition by fluorescence assay. More on the design: species or system Staphylococcus aureus subsp. aureus COL.
Methionine aminopeptidase (Staphylococcus aureus (strain COL), UniProt Q5HEN6), sequence (Q5HEN6 whole entry): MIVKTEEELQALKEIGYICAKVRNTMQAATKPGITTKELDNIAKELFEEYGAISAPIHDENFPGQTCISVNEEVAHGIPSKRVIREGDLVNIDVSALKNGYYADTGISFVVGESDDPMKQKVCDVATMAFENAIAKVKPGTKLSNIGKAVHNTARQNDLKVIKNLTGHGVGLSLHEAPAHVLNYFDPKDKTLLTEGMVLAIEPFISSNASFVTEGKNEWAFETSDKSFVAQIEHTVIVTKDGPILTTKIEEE

Data set [3] deals with Methionine aminopeptidase 1 (Homo sapiens, UniProt P53582). Kind of data set: Inhibition of N-terminal poly-His-tagged human MetAP-1 expressed in Escherichia coli BL21(DE3) incubated for 30 mins before MGMM substrate addition by fluorescence assay.
Data set [4] deals with Escherichia coli. As to the kind of experiment: Antimicrobial activity against Escherichia coli BL21(DE3) assessed as inhibition of bacterial growth at 200 uM incubated at 37 degC for 7 hrs. Type of data set: functional. The settings on record: for inhibition at 200 µM: BL21-DE3, 7 h.
Data set [5] deals with HaCaT. Kind of data set: Cytotoxicity against human HaCaT cells at 1.6 to 100 ug/ml after 72 hrs by crystal violet assay. Type of data set: cell-based.
Data set [6] in a line: Cytotoxicity against human Flow 2002 cells at 1.6 to 100 ug/ml after 72 hrs by crystal violet assay. The settings on record: flow 2002, 72 h. Type of data set: cell-based.
Data set [7] has as its system A 172. As to the kind of experiment: Cytotoxicity against human A172 cells at 1.6 to 100 ug/ml after 72 hrs by crystal violet assay. It counts as functional, cell-based.
The test system of data set [8] is CAPAN-1. Kind of data set: Cytotoxicity against human Capan1 cells at 1.6 to 100 ug/ml after 72 hrs by crystal violet assay. It counts as functional, cell-based.
Data set [9] deals with Ca-Ski. Kind of data set: Cytotoxicity against human CaSki cells at 1.6 to 100 ug/ml after 72 hrs by crystal violet assay. Type of data set: functional, cell-based.
Data set [10] has as its system SW707. Kind of data set: Cytotoxicity against human SW707 cells at 1.6 to 100 ug/ml after 72 hrs by crystal violet assay. Type of data set: functional, cell-based.
Data set [11] deals with Calu-6. Kind of data set: Cytotoxicity against human Calu6 cells at 1.6 to 100 ug/ml after 72 hrs by crystal violet assay. It counts as functional, cell-based.
Data set [12] deals with MeWo. As to the kind of experiment: Cytotoxicity against human MeWo cells at 1.6 to 100 ug/ml after 72 hrs by crystal violet assay. Type of data set: functional, cell-based.
Data set [13] relates to BT-474. Kind of data set: Cytotoxicity against human BT474 cells at 1.6 to 100 ug/ml after 72 hrs by crystal violet assay. Type of data set: functional, cell-based.
For data set [14], the system named is A-431. As to the kind of experiment: Cytotoxicity against human A431 cells at 1.6 to 100 ug/ml after 72 hrs by crystal violet assay. It counts as functional, cell-based.
Data set [15] has as its target Methionine aminopeptidase 2 (Homo sapiens, UniProt P50579). The conditions noted are these: sf9.
Description: Inhibition of human MetAP-2 expressed in Sf9 cells incubated for 60 mins before MGMM substrate addition by fluorescence assay
Data set [16] in a line: Half life assessed as decomposition into amines and unsaturated ketones at 250 uM in 50 mM Tris/maleate pH 7.5 buffer by HPLC method. It counts as physicochemical. The conditions noted are these: for half-life at 250 µM: Tris/maleate buffer, pH 7.5; for t1/2: buffer, pH 7.5, 250 µM.

As usually defined, the IC50 is the concentration that gives 50% inhibition. In general, inhibition refers to the percentage by which the read-out fell short of the control. As usually defined, the half-life is how long it takes for the measured level to halve.

Activity calls are given as the source filed them. The rule behind the calls is not given here.

Methionine aminopeptidase 2, sequence (P50579 whole entry): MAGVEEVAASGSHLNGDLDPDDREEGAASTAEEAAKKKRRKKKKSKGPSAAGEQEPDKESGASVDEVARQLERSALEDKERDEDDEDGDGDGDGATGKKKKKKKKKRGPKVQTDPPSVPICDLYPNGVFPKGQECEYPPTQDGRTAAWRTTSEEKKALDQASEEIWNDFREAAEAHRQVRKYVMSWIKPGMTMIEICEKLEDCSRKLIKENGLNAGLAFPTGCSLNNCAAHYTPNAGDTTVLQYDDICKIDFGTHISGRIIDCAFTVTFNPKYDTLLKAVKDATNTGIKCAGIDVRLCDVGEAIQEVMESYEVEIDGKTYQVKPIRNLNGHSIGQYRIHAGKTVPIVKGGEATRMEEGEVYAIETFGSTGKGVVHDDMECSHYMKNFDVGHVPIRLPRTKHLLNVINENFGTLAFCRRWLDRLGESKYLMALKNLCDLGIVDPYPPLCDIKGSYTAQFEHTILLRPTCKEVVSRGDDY

As for `CN(C)CCC(=O)c1ccccc1.Cl`, the IC50 result in [1], in [2], in data set [3] and in data set [15] was “Not Active” throughout. Moreover, the inhibition result in [4] is “inactive”. For the same compound, the Activity entry in data set [5] and in [6] was “Toxic” throughout. The result in data set [7], in data set [8], in data set [9], in [10], in [11] and in data set [12] was Active. For the same compound, the result in data set [13] and in [14] was Active.

Turning to `CN(C)CC1CCc2sccc2C1=O.Cl` (stereo not given), the half-maximal inhibitory concentration (IC50) is 60.8 µM in data set [1] (read-out: IC50), “Not Active” in [2], “Not Active” in data set [3] and “Not Active” in [15]. For the same compound, in data set [4], the inhibition at 200 µM stood at 10%. The half-life at 250 µM in data set [16] came out at 116 h. The Activity result in data set [5] and in data set [6] was “Toxic” each time. The outcome in data set [7], in [8], in data set [9], in data set [10], in [11] and in data set [12] was Active. Also, the result in data set [13] and in data set [14] was Active.

As to `COc1cccc(C(=O)CCN(C)C)c1.Cl`, the IC50 result in data set [1], in data set [2], in data set [3] and in data set [15] was “Not Active” throughout. The inhibition result in data set [4] was “inactive”. In addition, in [16], the t1/2 entry is listed as “Stable”. In addition, the Activity entry in data set [5] and in [6] was “Toxic” in each case. For the same compound, the result in data set [7], in data set [8], in data set [9], in [10], in data set [11] and in data set [12] was Active. Besides, the result in data set [13] and in [14] was Active.

As for `CCC(CN(C)C)C(=O)c1ccccc1.Cl` (stereo not given), the IC50 result in [1], in data set [2], in data set [3] and in [15] was “Not Active” each time. The inhibition entry in data set [4] is “inactive”. Besides, the t1/2 result in data set [16] was “Stable”. Besides, the Activity result in data set [5] and in [6] was “Toxic” in each case. The outcome in data set [7], in data set [8], in data set [9], in [10], in [11] and in data set [12] was Active. Moreover, the outcome in [13] and in [14] was Active.

As to `C=C1Cc2cc(OC)c(OC)cc2C1=O`, the IC50 in data set [1] (read-out: IC50) was 0.7 µM; in data set [2] (read-out: IC50), 18.9 µM; in [3] it was “Not Active”; in data set [15], “Not Active”. Further, the inhibition at 200 µM in data set [4] stood at 25%. Besides, the Activity result in data set [5] and in [6] was “Toxic” in each case. Further, the result in [7], in data set [8], in data set [9], in [10], in data set [11] and in data set [12] was Active. Further, the result in data set [13] and in data set [14] was Active.

For `CN(C)CC1CCc2ccccc2C1=O.Cl` (stereo not given), the IC50 in data set [1] (read-out: IC50) was 8.4 µM; in [2] it was “Not Active”; in [3] it was “Not Active”; in data set [15], “Not Active”. Also, in data set [4], the inhibition at 200 µM turned out to be 68%. Further, the half-life at 250 µM in data set [16] was determined as 5.78 h. The Activity entry in data set [5] and in data set [6] was “Toxic” in each case. For the same compound, the outcome in data set [7], in [8], in [9], in [10], in data set [11] and in [12] was Active. Moreover, the result in data set [13] and in [14] was Active.

In the case of `CN(C)CC1(C)Cc2ccccc2C1=O.Cl` (stereo not given), the IC50 result in data set [1], in data set [2], in [3] and in data set [15] was “Not Active” throughout. For the same compound, the inhibition entry in [4] was “inactive”. Also, the t1/2 entry in [16] is recorded as “Stable”. Besides, the Activity entry in [5] and in data set [6] was “Non-toxic” in each case. Also, the result in [7], in data set [8], in [9], in [10], in data set [11] and in data set [12] was inactive. Moreover, the outcome in data set [13] and in data set [14] was inactive.

As for `COc1ccc(C(=O)CCN2CCCCC2)cc1.Cl`, the IC50 entry in [1], in [2], in data set [3] and in [15] was “Not Active” each time. Moreover, the inhibition entry in data set [4] was “inactive”. Also, the Activity entry in data set [5] and in data set [6] was “Toxic” each time. For the same compound, the outcome in data set [7], in data set [8], in data set [9], in data set [10], in data set [11] and in data set [12] was Active. For the same compound, the outcome in data set [13] and in [14] was Active.

Turning to `Cc1ccc2c(c1)C(=O)C(CN(C)C)C2.Cl` (stereo not given), the IC50 was 0.7 µM in [1] (read-out: IC50), 15 µM in data set [2] (read-out: IC50) and “Not Active” in data set [15]. Further, the inhibition at 200 µM in data set [4] amounted to 45%. Also, in data set [16], the half-life at 250 µM was found to be 0.233 h. In addition, the Activity result in data set [5] and in data set [6] was “Toxic” throughout. The outcome in [7], in data set [8], in [9], in data set [10], in data set [11] and in data set [12] was Active. Also, the result in data set [13] and in data set [14] was Active.

Regarding `Cl.O=C1c2ccccc2CC1CN1CCCCC1` (stereo not given), the results for the IC50 in data set [1] (read-out: IC50), in data set [2] (read-out: IC50) and in data set [15] were 3.1 µM, 25 µM and “Not Active”, respectively. In addition, the inhibition at 200 µM in data set [4] worked out at 50%. Moreover, the half-life at 250 µM in data set [16] worked out at 0.267 h. In addition, the Activity entry in [5] and in [6] was “Toxic” throughout. Besides, the result in [7], in data set [8], in data set [9], in data set [10], in [11] and in data set [12] was Active. Further, the outcome in [13] and in data set [14] was Active.

Consider `COc1ccc(C(=O)CCN(C)C)cc1.Cl`, for which the IC50 result in data set [1], in data set [2], in [3] and in data set [15] was “Not Active” each time. Moreover, the inhibition result in [4] was “inactive”. In addition, the Activity entry in data set [5] and in data set [6] was “Toxic” each time. Also, the result in [7], in data set [8], in [9], in data set [10], in [11] and in [12] was Active. In addition, the outcome in [13] and in data set [14] was Active.
